According to patent publication US20040167028A1, “Method of introducing a substance into plant tissue” (HAMAMATSU PHOTONICS K.K., priority 2002, published 2004):
Read-outs that look alike come from different tables or passages of the source.

Tested on: tomato plant
Excerpt: According to the method of the invention, information relating to the amount, speed and site of introduction of the substance introduced into the plant tissue can be obtained, for example, using a positron imaging apparatus. With a positron imaging apparatus, information on the measuring target is obtained by introducing a substance labeled with positron-emitting RI as a tracer into a living body, and measuring the pair of gamma-rays produced as the positrons emitted from the RI-labeled substance are annihilated against electrons in the substance (see, for example, Japanese Patent Application Laid-Open No. 9-33658).
FIG. 5 is a view showing the basic construction of a positron imaging apparatus. The apparatus shown in this drawing comprises a pair of two-dimensional radiation detectors 60 and 70. The two-dimensional radiation detectors 60 and 70 in turn comprise scintillator arrays 61,71 each composed of a plurality of scintillators, and photodetectors 62,72 for detection of scintillation light generated by incidence of the gamma-rays on the scintillator arrays 61,71. The radiation detectors 60,70 are housed in separate detector cases 65,75 with the radiation incidence planes of the scintillator arrays 61,71 facing each other.
In this construction, a pair of gamma-rays emitted from a measuring target B (a plant, according to the invention) placed on a prescribed measuring surface S between the radiation detectors 60,70 are each detected by the radiation detectors 60,70. The detection signals are outputted through connected circuit systems 63,73 having amplifier circuits, etc. for amplification of the detection signals. The outputted amplification signals are inputted into a signal processing circuit 80, and the signal processing circuit 80 identifies coincident electron/positron annihilation events and calculates the position of the annihilation, based on the detection signals from the two radiation detectors 60,70.
Tomato (Merryroad variety) approximately 4 weeks after sprouting was used as the test plant. After removing a leaf at the end of the 6th side branch from the bottom of the main stem, the end was cut in the water for use as the absorption site (conductive tissue-exposed side branch) FIG. 6 is a schematic view showing the arrangement of the main stem 3 and side branches 2 of the tomato plant used in this experiment. The absorption site was located at the end of the side branch 2 extending toward the left in FIG. 6.
FIG. 7 is an integrated image obtained from the positron imaging apparatus, with the integrated image positioned to correspond to the positions of the main stem and side branch in FIG. 6.
Next, all of the leaves on the substance-absorbed side branch 2 of the tomato plant used in Comparative Example 1 were removed. […] FIG. 8 is the integrated image obtained from the positron imaging apparatus, with the integrated image positioned to correspond to the positions of the, main stem and side branch in FIG. 6.
Using a different tomato plant from that used in Example 1 (the same variety but a different plant), a leaf at the end of the 6th side branch from the bottom of the main stem was removed in the same manner as Example 1, and the end was cut in the water for use as the absorption site in the same manner as Comparative Example 1. The other leaves on that side branch were shaded by covering them with aluminum foil to inhibit transpiration. FIG. 10 is a schematic view showing the arrangement of the main stem 3 and side branches 2 of the tomato plant used in this experiment. The absorption site was located at the end of the upper side branch 2 of the side branches 2 extending toward the left in FIG. 10.

## O=[N+]([O-])O [^13N-labeled nitric acid]
Comparative Example 1, side branch with leaves, no inhibition of transpiration, FIG. 7
  migration of the substance in the main stem (integrated image): almost all of the substance migrated downward in the main stem
Comparative Example 2, leaves unshaded, no inhibition of transpiration, FIG. 12
  introduction of the substance into the side branch (integrated image): very little of the substance had been introduced
Example 1, all leaves of the absorbing side branch removed, versus Comparative Example 1 with leaves, observed for 1 hour, FIG. 9
  amount of substance introduction (RI accumulation / nitric acid absorption at the node): over twice
Example 1, leaves of the side branch removed, FIG. 8
  migration of the substance in the main stem (integrated image): Upward migration was also confirmed in the main stem
Example 2, leaves of the absorbing side branch shaded with aluminum foil, versus Comparative Example 2 unshaded, FIG. 13
  amount of substance introduction (RI accumulation at the node): over twice
Example 2, leaves shaded to inhibit transpiration, FIG. 11
  migration of the substance in the main stem (integrated image): upward migration occurred in the main stem
Example 4, sieve tubes of the side branch eliminated by heating at about 100° C., vessels alone, FIG. 16
  introduction of the substance into the plant (integrated image): the substance had been introduced into the plant
